# Where “and” joins values, the source holds several entries; their conditions need not be identical. Equal values may be shown once. Toxic doses and inconclusive results are not listed.
# Test system: L1210 leukemia ip in BDF1 mice, survival T/C
# Assay: NCI In Vivo Anticancer Drug Screen. Data for tumor model L1210 Leukemia (intraperitoneal) in B6D2F1 (BDF1) mice
# Conditions: endpoint: mean survival time, higher = longer survival
# In short: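 Value reflects the ratio of survival in compound-treated mice to survival in vehicle-treated controls, with both groups carrying the same transplanted tumor.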
# [1] = dose: 50.0 mg/kg/injection, schedule: Q01DX001 (ip), vehicle: saline
# [2] = dose: 100.0 mg/kg/injection, schedule: Q04DX003 (ip), vehicle: Klucel (hydroxypropylcellulose) (HPC)
# [3] = dose: 200.0 mg/kg/injection, schedule: Q04DX003 (ip), vehicle: Klucel (hydroxypropylcellulose) (HPC)
# [4] = dose: 400.0 mg/kg/injection, schedule: Q04DX003 (ip), vehicle: Klucel (hydroxypropylcellulose) (HPC)
smiles,measurement,setting,value
O=C(Nc1ccc(C2=NCCN2)cc1)c1cccc(C(=O)Nc2ccc(C3=NCCN3)cc2)c1,T/C,"dose: 1.0 mg/kg/injection, schedule: Q#A X Z (ip), vehicle: methylcellulose (MC)",114 % of control
same,T/C,"dose: 1.4 mg/kg/injection, schedule: Q01DX Z (ip), vehicle: methylcellulose (MC)",104 % of control
same,T/C,"dose: 1.88 mg/kg/injection, schedule: Q01DX Z (ip), vehicle: saline",113 % of control
same,T/C,"dose: 2.0 mg/kg/injection, schedule: Q01DX Z (ip), vehicle: methylcellulose (MC)",117 % of control
same,T/C,"dose: 2.5 mg/kg/injection, schedule: Q01DX Z (iv), vehicle: other",94 % of control and 100 % of control
same,T/C,"dose: 4.0 mg/kg/injection, schedule: Q#A X Z (ip), vehicle: methylcellulose (MC)",158 % of control
same,T/C,"dose: 5.0 mg/kg/injection, schedule: Q01DX Z (iv), vehicle: other",94 % of control
same,T/C,"dose: 6.0 mg/kg/injection, schedule: Q03DX Z (ip), vehicle: methylcellulose (MC)",109 % of control
same,T/C,"dose: 6.6 mg/kg/injection, schedule: Q01DX015 (ip), vehicle: carboxymethylcellulose (CMC)",236 % of control
same,T/C,"dose: 7.5 mg/kg/injection, schedule: Q01DX009 (ip), vehicle: saline",171 % of control
same,T/C,"dose: 7.5 mg/kg/injection, schedule: Q01DX Z (ip), vehicle: methylcellulose (MC)",168 % of control
same,T/C,"dose: 8.0 mg/kg/injection, schedule: Q01DX004 (im), vehicle: olive oil, sesame oil, peanut oil",97 % of control
same,T/C,"dose: 8.0 mg/kg/injection, schedule: Q01DX Z (ip), vehicle: methylcellulose (MC)",164 % of control
same,T/C,"dose: 8.0 mg/kg/injection, schedule: Q#A X Z (ip), vehicle: methylcellulose (MC)",273 % of control
same,T/C,"dose: 9.9 mg/kg/injection, schedule: Q01DX015 (ip), vehicle: carboxymethylcellulose (CMC)",261 % of control
same,T/C,"dose: 10.0 mg/kg/injection, schedule: Q01DX Z (iv), vehicle: other",97 % of control and 100 % of control
same,T/C,"dose: 15.0 mg/kg/injection, schedule: Q01DX009 (ip), vehicle: saline",173 % of control and 206 % of control
same,T/C,"dose: 15.0 mg/kg/injection, schedule: Q01DX015 (ip), vehicle: carboxymethylcellulose (CMC)",309 % of control
same,T/C,"dose: 15.0 mg/kg/injection, schedule: Q01DX Z (ip), vehicle: carboxymethylcellulose (CMC)",212 % of control
same,T/C,"dose: 15.0 mg/kg/injection, schedule: Q01DX Z (ip), vehicle: methylcellulose (MC)",255 % of control and 369 % of control
same,T/C,"dose: 15.0 mg/kg/injection, schedule: Q01DX Z (ip), vehicle: saline",214 % of control and 264 % of control
same,T/C,"dose: 16.0 mg/kg/injection, schedule: Q01DX004 (im), vehicle: olive oil, sesame oil, peanut oil",100 % of control
same,T/C,"dose: 16.0 mg/kg/injection, schedule: Q01DX010 (ip), vehicle: saline",169 % of control
same,T/C,"dose: 16.0 mg/kg/injection, schedule: Q01DX Z (ip), vehicle: methylcellulose (MC)",331 % of control
same,T/C,"dose: 16.0 mg/kg/injection, schedule: Q#A X Z (ip), vehicle: methylcellulose (MC)",350 % of control
same,T/C,"dose: 22.5 mg/kg/injection, schedule: Q01DX015 (ip), vehicle: carboxymethylcellulose (CMC)",341 % of control
same,T/C,"dose: 24.0 mg/kg/injection, schedule: Q03DX Z (ip), vehicle: methylcellulose (MC)",167 % of control
same,T/C,"dose: 30.0 mg/kg/injection, schedule: Q01DX009 (ip), vehicle: saline",184 % of control and 240 % of control
same,T/C,"dose: 30.0 mg/kg/injection, schedule: Q01DX Z (ip), vehicle: carboxymethylcellulose (CMC)",367 % of control
same,T/C,"dose: 30.0 mg/kg/injection, schedule: Q01DX Z (ip), vehicle: methylcellulose (MC)",119 % of control and 329 % of control
same,T/C,"dose: 30.0 mg/kg/injection, schedule: Q01DX Z (ip), vehicle: saline",329 % of control
same,T/C,"dose: 32.0 mg/kg/injection, schedule: Q01DX004 (im), vehicle: olive oil, sesame oil, peanut oil",97 % of control
same,T/C,"dose: 32.0 mg/kg/injection, schedule: Q01DX010 (ip), vehicle: saline",241 % of control
same,T/C,"dose: 32.0 mg/kg/injection, schedule: Q01DX Z (ip), vehicle: methylcellulose (MC)",347 % of control
same,T/C,"dose: 32.0 mg/kg/injection, schedule: Q01DX Z (sc), vehicle: methylcellulose (MC)",205 % of control
same,T/C,"dose: 32.0 mg/kg/injection, schedule: Q#A X Z (ip), vehicle: methylcellulose (MC)",193 % of control
same,T/C,"dose: 33.75 mg/kg/injection, schedule: Q01DX015 (ip), vehicle: carboxymethylcellulose (CMC)",316 % of control
same,T/C,"dose: 48.0 mg/kg/injection, schedule: Q03DX Z (ip), vehicle: methylcellulose (MC)",267 % of control
same,T/C,"dose: 56.0 mg/kg/injection, schedule: Q07DX Z (ip), vehicle: methylcellulose (MC)",166 % of control
same,T/C,"dose: 60.0 mg/kg/injection, schedule: Q01DX009 (ip), vehicle: saline",194 % of control and 228 % of control
same,T/C,"dose: 60.0 mg/kg/injection, schedule: Q01DX Z (ip), vehicle: carboxymethylcellulose (CMC)",255 % of control
same,T/C,"dose: 60.0 mg/kg/injection, schedule: Q01DX Z (ip), vehicle: methylcellulose (MC)",106 % of control
same,T/C,"dose: 60.0 mg/kg/injection, schedule: Q01DX Z (ip), vehicle: saline",280 % of control
same,T/C,"dose: 60.0 mg/kg/injection, schedule: Q01DX Z (oral), vehicle: methylcellulose (MC)",114 % of control
same,T/C,"dose: 64.0 mg/kg/injection, schedule: Q01DX004 (im), vehicle: olive oil, sesame oil, peanut oil",114 % of control
same,T/C,"dose: 64.0 mg/kg/injection, schedule: Q01DX010 (ip), vehicle: saline",276 % of control
same,T/C,"dose: 64.0 mg/kg/injection, schedule: Q01DX Z (sc), vehicle: methylcellulose (MC)",317 % of control
same,T/C,"dose: 96.0 mg/kg/injection, schedule: Q03DX Z (ip), vehicle: methylcellulose (MC)",352 % of control
same,T/C,"dose: 100.0 mg/kg/injection, schedule: Q01DX001 (ip), vehicle: water",156 % of control
same,T/C,"dose: 112.0 mg/kg/injection, schedule: Q07DX Z (ip), vehicle: methylcellulose (MC)",243 % of control
same,T/C,"dose: 120.0 mg/kg/injection, schedule: Q01DX009 (ip), vehicle: saline",334 % of control
same,T/C,"dose: 120.0 mg/kg/injection, schedule: Q01DX Z (ip), vehicle: methylcellulose (MC)",89 % of control
same,T/C,"dose: 120.0 mg/kg/injection, schedule: Q01DX Z (ip), vehicle: saline",211 % of control
same,T/C,"dose: 120.0 mg/kg/injection, schedule: Q01DX Z (oral), vehicle: methylcellulose (MC)",91 % of control
same,T/C,"dose: 128.0 mg/kg/injection, schedule: Q01DX Z (sc), vehicle: methylcellulose (MC)",338 % of control
same,T/C,"dose: 192.0 mg/kg/injection, schedule: Q03DX Z (ip), vehicle: methylcellulose (MC)",189 % of control
same,T/C,"dose: 200.0 mg/kg/injection, schedule: Q01DX001 (ip), vehicle: water",194 % of control
same,T/C,"dose: 240.0 mg/kg/injection, schedule: Q01DX Z (oral), vehicle: methylcellulose (MC)",97 % of control
same,T/C,"dose: 256.0 mg/kg/injection, schedule: Q01DX Z (sc), vehicle: methylcellulose (MC)",341 % of control
same,T/C,"dose: 300.0 mg/kg/injection, schedule: Q01DX001 (ip), vehicle: water",247 % of control
same,T/C,"dose: 480.0 mg/kg/injection, schedule: Q01DX Z (oral), vehicle: methylcellulose (MC)",89 % of control
Nc1cccc(CO)c1,T/C,"dose: 100.0 mg/kg/injection, schedule: Q04DX002 (ip), vehicle: saline with Tween-80",104 % of control
same,T/C,"dose: 200.0 mg/kg/injection, schedule: Q04DX002 (ip), vehicle: saline with Tween-80",90 % of control
same,T/C,"dose: 400.0 mg/kg/injection, schedule: Q04DX002 (ip), vehicle: saline with Tween-80",90 % of control
OCCNC(c1ccc(Cl)cc1)C(O)c1ccc(Cl)cc1 (configuration not stated),T/C,[1],98 % of control
same,T/C,"dose: 100.0 mg/kg/injection, schedule: Q01DX001 (ip), vehicle: saline",98 % of control
same,T/C,"dose: 200.0 mg/kg/injection, schedule: Q01DX001 (ip), vehicle: saline",98 % of control
c1cnc(OCCN2CC2)cn1,T/C,"dose: 25.0 mg/kg/injection, schedule: Q01DX001 (ip), vehicle: saline",115 % of control
same,T/C,[1],96 % of control
O=c1c(Cl)c(C(Cl)(Cl)Cl)[nH]c2ccc([N+](=O)[O-])cc12,T/C,"dose: 25.0 mg/kg/injection, schedule: Q01DX001 (ip), vehicle: saline with Tween-80",101 % of control
same,T/C,"dose: 50.0 mg/kg/injection, schedule: Q01DX001 (ip), vehicle: saline with Tween-80",101 % of control
OCCC1CNCCN1.[Cl][Pd]([Cl])([Cl])[Cl] (configuration not stated),T/C,"dose: 100.0 mg/kg/injection, schedule: Q01DX001 (ip), vehicle: DMSO",98 % of control
same,T/C,"dose: 200.0 mg/kg/injection, schedule: Q01DX001 (ip), vehicle: DMSO",91 % of control
Nc1cc(Cl)cc2c1nc(NCCO)c1ccccc12,T/C,[2],97 % of control
same,T/C,[3],90 % of control
same,T/C,[4],98 % of control
NNC(=S)N/N=C/c1ccc([N+](=O)[O-])s1,T/C,"dose: 100.0 mg/kg/injection, schedule: Q04DX003 (ip), vehicle: saline",87 % of control
same,T/C,"dose: 200.0 mg/kg/injection, schedule: Q04DX003 (ip), vehicle: saline",89 % of control
same,T/C,"dose: 400.0 mg/kg/injection, schedule: Q04DX003 (ip), vehicle: saline",95 % of control
Cc1cnc(N)cn1 (tested in a mixture with another compound),T/C,[2],102 % of control
same,T/C,[3],109 % of control
same,T/C,[4],88 % of control

# — PubChem BioAssay AID248 (DTP/NCI, 2004)
